# Biological target: Polθ theta (1-899) (hPolQ) (Homo sapiens (Human), UniProt O75417)
# Assay: Biological Assay 1: Polθ ATPase activity, NADH oxidation-coupled enzymatic assay (10 nM enzyme, 30 min)
# Format: biochemical
# Conditions: Polθ (1-899) 10 nM, 100 μM ATP, 300 nM dT50 ssDNA; Examples 1 to 268; read-out: ATPase NADH coupling:Standard Screening:hPolQ IC50
# Outline: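 ATP turnover was coupled to NADH oxidation and followed at 340 nm every minute for 30 min. Enzyme (residues 1-899, 10 nM) sat with compound for 15 min at room temperature before an equal-volume addition of 100 μM ATP plus 300 nM dT50 ssDNA. Progress-curve slopes from 10-point dilutions were fitted by a four-parameter model.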
# Polθ theta (1-899) (hPolQ), sequence (O75417 1-899): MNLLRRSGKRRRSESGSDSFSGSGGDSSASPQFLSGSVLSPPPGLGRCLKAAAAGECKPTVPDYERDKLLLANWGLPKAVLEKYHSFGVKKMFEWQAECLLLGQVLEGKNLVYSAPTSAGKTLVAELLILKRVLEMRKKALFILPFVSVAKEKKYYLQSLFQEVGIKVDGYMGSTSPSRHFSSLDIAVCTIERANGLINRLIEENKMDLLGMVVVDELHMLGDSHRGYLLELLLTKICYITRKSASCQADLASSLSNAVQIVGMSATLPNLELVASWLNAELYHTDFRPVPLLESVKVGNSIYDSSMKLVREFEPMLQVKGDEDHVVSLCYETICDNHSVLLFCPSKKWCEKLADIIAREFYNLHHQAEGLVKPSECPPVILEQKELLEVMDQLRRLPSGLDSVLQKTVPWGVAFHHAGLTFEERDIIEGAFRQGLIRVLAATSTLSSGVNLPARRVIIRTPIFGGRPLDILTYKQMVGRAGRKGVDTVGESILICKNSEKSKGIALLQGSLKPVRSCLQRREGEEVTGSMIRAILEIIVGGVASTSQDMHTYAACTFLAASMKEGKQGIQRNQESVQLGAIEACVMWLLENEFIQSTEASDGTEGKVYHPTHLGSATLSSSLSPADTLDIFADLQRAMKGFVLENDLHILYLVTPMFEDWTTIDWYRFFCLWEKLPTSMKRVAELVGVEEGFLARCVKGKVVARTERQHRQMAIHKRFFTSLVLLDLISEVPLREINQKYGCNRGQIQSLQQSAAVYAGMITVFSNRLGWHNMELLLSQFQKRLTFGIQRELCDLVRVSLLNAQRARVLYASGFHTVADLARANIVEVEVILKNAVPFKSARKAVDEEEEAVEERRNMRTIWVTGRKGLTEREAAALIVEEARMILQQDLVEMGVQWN
row,Structure (SMILES),IC50
1,"COCc1cccc(COc2nnc(NC(=O)c3cnc(C)cc3-c3ccccc3OC)s2)n1 [Example 26, N-(5-((6-(methoxymethyl)pyridin-2-yl)methoxy)-1,3,4-thiadiazol-2-yl)-4-(2-methoxyphenyl)-6-methylnicotinamide]",200 to 500 nM
2,"COc1cnc(Cl)cc1-c1cc(C)ncc1C(=O)Nc1nnc(OCC2CCCC2O)s1 (stereo not shown) [Example 261, 2′-chloro-N-(5-((2-hydroxycyclopentyl)methoxy)-1,3,4-thiadiazol-2-yl)-5′-methoxy-6-methyl-(4,4′-bipyridine)-3-carboxamide]",≤ 200 nM
3,"Cc1cc(-c2ccnc(Cl)c2)c(C(=O)Nc2nnc(OCc3ccc(C(C)(C)O)cn3)s2)cn1 [Example 73, 2′-chloro-N-(5-((5-(2-hydroxypropan-2-yl)pyridin-2-yl)methoxy)-1,3,4-thiadiazol-2-yl)-6-methyl-(4,4′-bipyridine)-3-carboxamide]",≤ 200 nM
4,"COc1cnc(Cl)cc1-c1cc(C)ncc1C(=O)Nc1nnc(OCC2CC2(F)F)s1 (stereo not shown) [Example 206, 2′-chloro-N-(5-((2,2-difluorocyclopropyl)methoxy)-1,3,4-thiadiazol-2-yl)-5′-methoxy-6-methyl-(4,4′-bipyridine)-3-carboxamide]",≤ 200 nM
5,"COc1cnc(Cl)cc1-c1cc(C)ncc1C(=O)Nc1nnc(OCc2ccc(CO)cn2)s1 [Example 60, 2′-chloro-N-(5-((5-(hydroxymethyl)pyridin-2-yl)methoxy)-1,3,4-thiadiazol-2-yl)-5′-methoxy-6-methyl-[4,4′-bipyridine]-3-carboxamide]",≤ 200 nM
6,"COc1cnc(Cl)cc1-c1cc(C)ncc1C(=O)Nc1nnc(OC[C@H]2CC[C@@H](O)C2)s1 (single isomer, unassigned) [Example 210]",≤ 200 nM
7,"COc1cnc(Cl)cc1-c1cc(C)ncc1C(=O)Nc1nnc(OC[C@H]2CC[C@@](C)(O)CC2)s1 [Example 215, 2′-chloro-N-(5-(((1s,4s)-4-hydroxy-4-methylcyclohexyl)methoxy)-1,3,4-thiadiazol-2-yl)-5′-methoxy-6-methyl-(4,4′-bipyridine)-3-carboxamide]",≤ 200 nM
8,"Cc1cc(-c2c(F)cccc2OC(F)F)c(C(=O)Nc2nnc(OCc3ccc(C(C)(C)O)cn3)s2)cn1 [Example 50, 4-(2-(difluoromethoxy)-6-fluorophenyl)-N-(5-((5-(2-hydroxypropan-2-yl)pyridin-2-yl)methoxy)-1,3,4-thiadiazol-2-yl)-6-methylnicotinamide]",≤ 200 nM
9,"COc1cccc(F)c1-c1cc(C)ncc1C(=O)Nc1nnc(OCc2cnc(C(C)(C)O)cn2)s1 [Example 119, 4-(2-fluoro-6-methoxyphenyl)-N-(5-((5-(2-hydroxypropan-2-yl)pyrazin-2-yl)methoxy)-1,3,4-thiadiazol-2-yl)-6-methylnicotinamide]",200 to 500 nM
10,"COc1cnc(Cl)cc1-c1cc(C)ncc1C(=O)Nc1nnc(OC[C@]2(C)CCOC2)s1 (single isomer, unassigned) [Example 160]",≤ 200 nM
11,"COc1cc(CO)ccc1-c1cc(C)ncc1C(=O)Nc1nnc(OCc2ccc(Cl)cn2)s1 [Example 31, N-(5-((5-chloropyridin-2-yl)methoxy)-1,3,4-thiadiazol-2-yl)-4-(4-(hydroxymethyl)-2-methoxyphenyl)-6-methylnicotinamide]",200 to 500 nM
12,"COc1ccccc1-c1cc(C)ncc1C(=O)Nc1nnc(O[C@@H](CO)c2ccc(Cl)cn2)s1 [Example 29, (R)—N-(5-(1-(5-chloropyridin-2-yl)-2-hydroxyethoxy)-1,3,4-thiadiazol-2-yl)-4-(2-methoxyphenyl)-6-methylnicotinamide]",1000 to 10000 nM
13,"COc1cnc(Cl)cc1-c1cc(C)ncc1C(=O)Nc1nnc(OCC2(F)CC2)s1 [Example 198, 2′-chloro-N-(5-((1-fluorocyclopropyl)methoxy)-1,3,4-thiadiazol-2-yl)-5′-methoxy-6-methyl-(4,4′-bipyridine)-3-carboxamide]",≤ 200 nM
14,"COc1cnc(C)cc1-c1cc(C)ncc1C(=O)Nc1nnc(OCC2(F)CC2)s1 [Example 203, N-(5-((1-fluorocyclopropyl)methoxy)-1,3,4-thiadiazol-2-yl)-5′-methoxy-2′,6-dimethyl-(4,4′-bipyridine)-3-carboxamide]",≤ 200 nM
15,"COc1ccc(Cl)cc1-c1cc(C)ncc1C(=O)Nc1nnc(OCc2ccc([S@@](C)(=N)=O)cc2)s1 [Example 123, (S)-4-(5-chloro-2-methoxyphenyl)-6-methyl-N-(5-((4-(S-methylsulfonimidoyl)benzyl)oxy)-1,3,4-thiadiazol-2-yl)nicotinamide]",≤ 200 nM
16,"COc1cccc(F)c1-c1cc(C)ncc1C(=O)Nc1nnc(OCc2ccc(OC(C)C)cn2)s1 [Example 75, 4-(2-fluoro-6-methoxyphenyl)-N-(5-((5-isopropoxypyridin-2-yl)methoxy)-1,3,4-thiadiazol-2-yl)-6-methylnicotinamide]",≤ 200 nM

row,Structure (SMILES),IC50
1,"COc1cnc(C)c(F)c1-c1cc(C)ncc1C(=O)Nc1nnc(OC[C@H]2COCCO2)s1 [Example 242, N-(5-(((R)-1,4-dioxan-2-yl)methoxy)-1,3,4-thiadiazol-2-yl)-3′-fluoro-5′-methoxy-2′,6-dimethyl-(4,4′-bipyridine)-3-carboxamide]",≤ 200 nM
2,"Cc1cc(-c2cc(Cl)ncc2OC(F)F)c(C(=O)Nc2nnc(OCC3CCOC3)s2)cn1 (racemic) [Example 259, 2′-chloro-5′-(difluoromethoxy)-6-methyl-N-(5-((tetrahydrofuran-3-yl)methoxy)-1,3,4-thiadiazol-2-yl)-(4,4′-bipyridine)-3-carboxamide]",≤ 200 nM
3,"COc1ccc(Cl)cc1-c1cnncc1C(=O)Nc1nnc(OCC23CCC(F)(CC2)CC3)s1 [Example 142, 5-(5-chloro-2-methoxyphenyl)-N-(5-((4-fluorobicyclo(2.2.2)octan-1-yl)methoxy)-1,3,4-thiadiazol-2-yl)pyridazine-4-carboxamide]",≤ 200 nM
4,"COc1cccc(F)c1-c1cc(C)ncc1C(=O)Nc1nnc(OCc2ccc([C@@H](C)O)cn2)s1 [Example 41, 4-(2-fluoro-6-methoxyphenyl)-N-(5-((5-((R)-1-hydroxyethyl)pyridin-2-yl)methoxy)-1,3,4-thiadiazol-2-yl)-6-methylnicotinamide]",≤ 200 nM
5,"COc1cnc(Br)cc1-c1cc(C)ncc1C(=O)Nc1nnc(OCC2CCOC2)s1 (racemic) [Example 260, 2′-bromo-5′-methoxy-6-methyl-N-(5-((tetrahydrofuran-3-yl)methoxy)-1,3,4-thiadiazol-2-yl)-(4,4′-bipyridine)-3-carboxamide]",≤ 200 nM
6,"COc1ccc(Cl)cc1-c1cc(C)ncc1C(=O)Nc1nnc(OCc2ccc([S@](C)(=N)=O)cn2)s1 [Example 147, (R)-4-(5-chloro-2-methoxyphenyl)-6-methyl-N-(5-((5-(S-methylsulfonimidoyl)pyridin-2-yl)methoxy)-1,3,4-thiadiazol-2-yl)nicotinamide]",≤ 200 nM
7,"COc1cnc(C)cc1-c1cc(C)ncc1C(=O)Nc1nnc(OC[C@H]2CC[C@H](O)CC2)s1 [Example 100, N-(5-(((1r,4r)-4-hydroxycyclohexyl)methoxy)-1,3,4-thiadiazol-2-yl)-5′-methoxy-2′,6-dimethyl-[4,4′-bipyridine]-3-carboxamide]",≤ 200 nM
8,"COc1cnc(Cl)cc1-c1cc(C)ncc1C(=O)Nc1nnc(OC[C@H]2COCCO2)s1 [Example 187, (R)—N-(5-((1,4-dioxan-2-yl)methoxy)-1,3,4-thiadiazol-2-yl)-2′-chloro-5′-methoxy-6-methyl-(4,4′-bipyridine)-3-carboxamide]",≤ 200 nM
9,"COc1cnc(Cl)cc1-c1cc(C)ncc1C(=O)Nc1nnc(OC[C@H]2CC[C@H](OC)CC2)s1 [Example 137, 2′-chloro-5′-methoxy-N-(5-(((1r,4r)-4-methoxycyclohexyl)methoxy)-1,3,4-thiadiazol-2-yl)-6-methyl-[4,4′-bipyridine]-3-carboxamide]",≤ 200 nM
10,"COc1ccc(C)cc1-c1cc(C)ncc1C(=O)Nc1nnc(OCc2cnc(CO)cn2)s1 [Example 134, N-(5-((5-(hydroxymethyl)pyrazin-2-yl)methoxy)-1,3,4-thiadiazol-2-yl)-4-(2-methoxy-5-methylphenyl)-6-methylpyridine-3-carboxamide]",≤ 200 nM
11,"COc1cnc(Cl)cc1-c1cc(C)ncc1C(=O)Nc1nnc(OC[C@]2(F)CCOC2)s1 (single isomer, unassigned) [Example 264]",≤ 200 nM
12,"COc1cnc(Cl)c(F)c1-c1cc(C)ncc1C(=O)Nc1nnc(OCC23CC(O)(C2)C3)s1 [Example 185, 2′-chloro-3′-fluoro-N-(5-((3-hydroxybicyclo(1.1.1)pentan-1-yl)methoxy)-1,3,4-thiadiazol-2-yl)-5′-methoxy-6-methyl-(4,4′-bipyridine)-3-carboxamide]",≤ 200 nM
13,"COc1cccc(F)c1-c1cc(C)ncc1C(=O)Nc1nnc(OCC23CCC(F)(CC2)CC3)s1 [Example 65, 4-(2-fluoro-6-methoxyphenyl)-N-(5-((4-fluorobicyclo(2.2.2)octan-1-yl)methoxy)-1,3,4-thiadiazol-2-yl)-6-methylnicotinamide]",≤ 200 nM
14,"COc1cccc(F)c1-c1cc(C)ncc1C(=O)Nc1nnc(OCc2ccc3c(n2)OCCO3)s1 [Example 35, N-(5-(2H,3H-(1,4)dioxino(2,3-b)pyridin-6-ylmethoxy)-1,3,4-thiadiazol-2-yl)-4-(2-fluoro-6-methoxyphenyl)-6-methylpyridine-3-carboxamide]",≤ 200 nM
15,"COc1cnc(Cl)cc1-c1cc(C)ncc1C(=O)Nc1nnc(OCc2ccc(C3(C)COC3)cn2)s1 [Example 86, 2′-chloro-5′-methoxy-6-methyl-N-(5-((5-(3-methyloxetan-3-yl)pyridin-2-yl)methoxy)-1,3,4-thiadiazol-2-yl)-[4,4′-bipyridine]-3-carboxamide]",≤ 200 nM
